Assay results: patent US20240391948A1, “NOVEL COMPOUND THAT INHIBITS TNF-ALPHA GENERATION AND INFLAMMASOME ACTIVITY AND PREPARATION METHOD THEREFOR” (SHAPERON INC., priority 2021, published 2024)

Key:
Type in all cases: cell-based
[1] = test system: U937 cells (human monocytic cell line); experiment: BzATP-induced IL-1β secretion inhibition in PMA-differentiated U937 cells; settings: U-937, U937 cells differentiated with PMA, read-out: IL-1β production inhibition grade (IC50)
How it was run: (§1)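 Inhibition is given as IC50 (μM) in A-D bands, using distinct thresholds for TNF-α and for IL-1β. Secretion followed Pam2CSK4 stimulation (TNF-α) or BzATP stimulation (IL-1β) of compound-pretreated, PMA-differentiated U937 macrophages.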

[2] = test system: J774A.1 (Mouse BALB/c monocyte macrophage cell line) cells; experiment: LPS-induced TNF-α secretion inhibition in J774A.1 cells; settings: J774.A1, 1 μM compound, graded compared to taurodeoxycholic acid (positive control), read-out: TNF-α production inhibition grade
How it was run: (§2)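 Grades (A >100%, B 50–100%, C 20–50%, D <20%) express cytokine suppression by 1 μM compound relative to taurodeoxycholic acid. LPS-induced TNF-α and LPS+ATP-induced IL-1β secretion were measured in murine J774A.1 macrophage cells.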

[3] = test system: U937 cells (human monocytic cell line); experiment: Pam2CSK4-induced TNF-α secretion inhibition in PMA-differentiated U937 cells; settings: U-937, U937 cells differentiated with PMA, read-out: TNF-α production inhibition grade (IC50)
How it was run: as §1

[4] = test system: J774A.1 (Mouse BALB/c monocyte macrophage cell line) cells; experiment: LPS+ATP-induced IL-1β secretion inhibition in J774A.1 cells; settings: J774.A1, 1 μM compound, graded compared to taurodeoxycholic acid (positive control), read-out: IL-1β production inhibition grade
How it was run: as §2

Row | Structure (SMILES) | IC50 [1] [nM] | inhibition at 1 µM [2] [%] | IC50 [3] [nM] | inhibition at 1 µM [4] [%]
1 | C[C@H](CCC(=O)N(CCO)CCS(=O)(=O)O)[C@H]1CC[C@H]2[C@@H]3[C@H](O)C[C@@H]4C[C@H](O)CC[C@]4(C)[C@H]3C[C@H](O)[C@]12C [NC20006] | < 50 | < 20 | 1000 to 2000 | > 100
2 | CC(C)N(CCS(=O)(=O)O)C(=O)CC[C@@H](C)[C@H]1CC[C@H]2[C@@H]3[C@H](O)C[C@@H]4C[C@H](O)CC[C@]4(C)[C@H]3C[C@H](O)[C@]12C [NC20007] | < 50 | < 20 | 1000 to 2000 | > 100
3 | C[C@H](CCC(=O)N(CCS(=O)(=O)O)C1CCOCC1)[C@H]1CC[C@H]2[C@@H]3[C@H](O)C[C@@H]4C[C@H](O)CC[C@]4(C)[C@H]3C[C@H](O)[C@]12C [NC20008] | 50 to 100 | < 20 | 500 to 1000 | > 100
4 | C[C@H](CCC(=O)N1CCC[C@H](S(=O)(=O)O)C1)[C@H]1CC[C@H]2[C@@H]3[C@H](O)C[C@@H]4C[C@H](O)CC[C@]4(C)[C@H]3C[C@H](O)[C@]12C [NC20009] | < 50 | < 20 | ≥ 2000 | < 20
5 | C[C@H](CCC(=O)N1CCC[C@@H](S(=O)(=O)O)C1)[C@H]1CC[C@H]2[C@@H]3[C@H](O)C[C@@H]4C[C@H](O)CC[C@]4(C)[C@H]3C[C@H](O)[C@]12C [NC20010] | < 50 | < 20 | 1000 to 2000 | 50 to 100
6 | C[C@H](CCC(=O)N1CCC(S(=O)(=O)O)CC1)[C@H]1CC[C@H]2[C@@H]3[C@H](O)C[C@@H]4C[C@H](O)CC[C@]4(C)[C@H]3C[C@H](O)[C@]12C [NC20011] | 50 to 100 | < 20 | ≥ 2000 | 50 to 100
7 | C[C@H](CCC(=O)N1CC(S(=O)(=O)O)C1)[C@H]1CC[C@H]2[C@@H]3[C@H](O)C[C@@H]4C[C@H](O)CC[C@]4(C)[C@H]3C[C@H](O)[C@]12C [NC20012] | < 50 | < 20 | 500 to 1000 | > 100
8 | C[C@H](CCC(=O)NC(C)(C)CS(=O)(=O)O)[C@H]1CC[C@H]2[C@@H]3[C@H](O)C[C@@H]4C[C@H](O)CC[C@]4(C)[C@H]3C[C@H](O)[C@]12C [NC20013] | < 50 | < 20 | 1000 to 2000 | > 100
9 | C[C@H](CCC(=O)N[C@@H](Cc1ccccc1)CS(=O)(=O)O)[C@H]1CC[C@H]2[C@@H]3[C@H](O)C[C@@H]4C[C@H](O)CC[C@]4(C)[C@H]3C[C@H](O)[C@]12C [NC20014] | < 50 | < 20 | 500 to 1000 | > 100
10 | C[C@H](CCC(=O)N[C@H](Cc1ccccc1)CS(=O)(=O)O)[C@H]1CC[C@H]2[C@@H]3[C@H](O)C[C@@H]4C[C@H](O)CC[C@]4(C)[C@H]3C[C@H](O)[C@]12C [NC20015] | < 50 | < 20 | < 500 | > 100
11 | CC(C)[C@@H](CS(=O)(=O)O)NC(=O)CC[C@@H](C)[C@H]1CC[C@H]2[C@@H]3[C@H](O)C[C@@H]4C[C@H](O)CC[C@]4(C)[C@H]3C[C@H](O)[C@]12C [NC20016] | < 50 | < 20 | 1000 to 2000 | > 100
12 | CC(C)[C@H](CS(=O)(=O)O)NC(=O)CC[C@@H](C)[C@H]1CC[C@H]2[C@@H]3[C@H](O)C[C@@H]4C[C@H](O)CC[C@]4(C)[C@H]3C[C@H](O)[C@]12C [NC20017] | ≥ 200 | < 20 | < 500 | 50 to 100
13 | C[C@H](CCC(=O)N[C@H](CS(=O)(=O)O)c1ccccc1)[C@H]1CC[C@H]2[C@@H]3[C@H](O)C[C@@H]4C[C@H](O)CC[C@]4(C)[C@H]3C[C@H](O)[C@]12C [NC20018] | ≥ 200 | < 20 | 1000 to 2000 | < 20
14 | C[C@H](CCC(=O)N[C@@H](CS(=O)(=O)O)c1ccccc1)[C@H]1CC[C@H]2[C@@H]3[C@H](O)C[C@@H]4C[C@H](O)CC[C@]4(C)[C@H]3C[C@H](O)[C@]12C [NC20019] | 50 to 100 | < 20 | 1000 to 2000 | < 20
15 | C[C@H](CCC(=O)N1CCC[C@@H]1CS(=O)(=O)O)[C@H]1CC[C@H]2[C@@H]3[C@H](O)C[C@@H]4C[C@H](O)CC[C@]4(C)[C@H]3C[C@H](O)[C@]12C [NC20020] | < 50 | 50 to 100 | ≥ 2000 | 20 to 50
16 | C[C@H](CCC(=O)N1CCC[C@H]1CS(=O)(=O)O)[C@H]1CC[C@H]2[C@@H]3[C@H](O)C[C@@H]4C[C@H](O)CC[C@]4(C)[C@H]3C[C@H](O)[C@]12C [NC20021] | 50 to 100 | < 20 | 1000 to 2000 | < 20
17 | C[C@H](CCC(=O)NC[C@H](C)S(=O)(=O)O)[C@H]1CC[C@H]2[C@@H]3[C@H](O)C[C@@H]4C[C@H](O)CC[C@]4(C)[C@H]3C[C@H](O)[C@]12C [NC20022] | < 50 | < 20 | 1000 to 2000 | < 20
18 | C[C@H](CCC(=O)NC[C@@H](C)S(=O)(=O)O)[C@H]1CC[C@H]2[C@@H]3[C@H](O)C[C@@H]4C[C@H](O)CC[C@]4(C)[C@H]3C[C@H](O)[C@]12C [NC20023] | 50 to 100 | < 20 | ≥ 2000 | < 20
19 | C[C@H](CCC(=O)N[C@@H](CO)CS(=O)(=O)O)[C@H]1CC[C@H]2[C@@H]3[C@H](O)C[C@@H]4C[C@H](O)CC[C@]4(C)[C@H]3C[C@H](O)[C@]12C [NC20024] | ≥ 200 | < 20 | < 500 | 20 to 50
20 | C[C@H](CCC(=O)N[C@H](CO)CS(=O)(=O)O)[C@H]1CC[C@H]2[C@@H]3[C@H](O)C[C@@H]4C[C@H](O)CC[C@]4(C)[C@H]3C[C@H](O)[C@]12C [NC20025] | ≥ 200 | < 20 | ≥ 2000 | < 20
21 | C[C@H](CCC(=O)N[C@@H]1CCCC[C@@H]1S(=O)(=O)O)[C@H]1CC[C@H]2[C@@H]3[C@H](O)C[C@@H]4C[C@H](O)CC[C@]4(C)[C@H]3C[C@H](O)[C@]12C [NC20026] | 100 to 200 | < 20 | 1000 to 2000 | 50 to 100
22 | C[C@H](CCC(=O)N[C@H]1CCCC[C@H]1S(=O)(=O)O)[C@H]1CC[C@H]2[C@@H]3[C@H](O)C[C@@H]4C[C@H](O)CC[C@]4(C)[C@H]3C[C@H](O)[C@]12C [NC20027] | < 50 | < 20 | ≥ 2000 | > 100
23 | C[C@H](CCC(=O)N[C@@H](C)CS(=O)(=O)O)[C@H]1CC[C@H]2[C@@H]3[C@H](O)C[C@@H]4C[C@H](O)CC[C@]4(C)[C@H]3C[C@H](O)[C@]12C [NC20028] | ≥ 200 | < 20 | 1000 to 2000 | < 20
24 | C[C@H](CS(=O)(=O)O)NC(=O)CC[C@@H](C)[C@H]1CC[C@H]2[C@@H]3[C@H](O)C[C@@H]4C[C@H](O)CC[C@]4(C)[C@H]3C[C@H](O)[C@]12C [NC20029] | 50 to 100 | < 20 | < 500 | < 20
25 | CC(C)C[C@@H](CS(=O)(=O)O)NC(=O)CC[C@@H](C)[C@H]1CC[C@H]2[C@@H]3[C@H](O)C[C@@H]4C[C@H](O)CC[C@]4(C)[C@H]3C[C@H](O)[C@]12C [NC20030] | ≥ 200 | < 20 | < 500 | < 20
26 | CC(C)C[C@H](CS(=O)(=O)O)NC(=O)CC[C@@H](C)[C@H]1CC[C@H]2[C@@H]3[C@H](O)C[C@@H]4C[C@H](O)CC[C@]4(C)[C@H]3C[C@H](O)[C@]12C [NC20031] | 50 to 100 | < 20 | < 500 | 50 to 100
27 | C[C@H](CCC(=O)NC1(CS(=O)(=O)O)CC1)[C@H]1CC[C@H]2[C@@H]3[C@H](O)C[C@@H]4C[C@H](O)CC[C@]4(C)[C@H]3C[C@H](O)[C@]12C [NC20032] | < 50 | < 20 | ≥ 2000 | 50 to 100
28 | C[C@H](CCC(=O)N1CC[C@H](S(=O)(=O)O)C1)[C@H]1CC[C@H]2[C@@H]3[C@H](O)C[C@@H]4C[C@H](O)CC[C@]4(C)[C@H]3C[C@H](O)[C@]12C [NC20033] | 50 to 100 | < 20 | 1000 to 2000 | 20 to 50
